# According to paper PMC11149885 (PLOS ONE, 2024):
# Where two headings read alike, the source gives them in different places.
# Assays:
# VEGFR2 [1] = molecular target: T1, VEGFR2 (Homo sapiens, UniProt P35968); details: cited from earlier work
# T1 construct: purchased Millipore Corporation (Dundee, Scotland) or Reaction Biology Corporation (contract assay)
# VEGFR3 [2] = molecular target: T2, VEGFR3 (Homo sapiens, UniProt P35916); assay: Ten-dose IC50 measurement; format: biochemical; details: 10μM ATP
# T2 construct: purchased Millipore Corporation (Dundee, Scotland) or Reaction Biology Corporation (contract assay)
# VEGFR2 [3] = molecular target: T1, VEGFR2; assay: Previously reported IC50 (literature); format: biochemical; details: nM value converted, S2 Fig legend
# VEGFR1 [4] = molecular target: T3, VEGFR1 (Homo sapiens, UniProt P17948); assay: Ten-dose IC50 measurement
# VEGFR3 [5] = molecular target: T2, VEGFR3; assay: HotSpot kinase screen; format: biochemical; details: 10μM ATP
# Method: (§1) Measurement of kinase activity was performed by Reaction Biology Corporation (Reaction Biology Corporation, Malvern, PA), using the HotSpot™ assay. The screen focused on RTKs reported in the literature to play a major role in the regulation of angiogenesis (VEGFR1, VEGFR2, and VEGFR3; fibroblast growth factor receptor [FGFR] 1, 2, and 3; and platelet-derived growth factor receptor beta [PDGFRβ]) as well as an RTK essential for maintaining blood vessel stability (TIE2). For the profiling, specific kinase/substrate pairs and required cofactors were prepared in a reaction buffer (20mM Hepes [pH 7.5], 10mM MgCl2, 1mM EGTA, 0.02% Brij35, 0.02 mg/mL BSA, 0.1mM Na3VO4, 2mM DTT, 1% dimethyl sulfoxide [DMSO]). TKI compounds were diluted to 10μM and 1μM concentrations for the screens and after addition to the reaction buffer incubated for 20 minutes, followed by the addition of a mixture of ATP (Sigma, St. Louis, MO) and ^33P-ATP (Perkin Elmer, Waltham, MA) to a final ATP concentration of 10μM. Reactions were carried out at room temperature for 2 hours, followed by spotting of the reactions onto P81 ion exchange filter paper (Whatman Inc., Piscataway, NJ). Unbound phosphate was removed by extensive washing of the filters. […] Kinome TREEspot images representing levels of inhibition were prepared using Kinome Mapper (https://www.reactionbiology.com/resources/tools/kinase-mapper).
# FGFR2 = molecular target: T4, FGFR2 (Homo sapiens, UniProt P21802); assay: HotSpot kinase screen; format: biochemical; details: 10μM ATP
# T4 construct: purchased Reaction Biology Corporation (contract assay)
# Method: as §1
# TIE2 [6] = molecular target: T5, TIE2 (Homo sapiens, UniProt Q02763); assay: HotSpot kinase screen; format: biochemical; parameters: purchased Reaction Biology Corporation (contract assay); details: 10μM ATP
# VEGFR1 [7] = molecular target: T3, VEGFR1; assay: HotSpot kinase screen; format: biochemical; parameters: purchased Millipore Corporation (Dundee, Scotland) or Reaction Biology Corporation (contract assay); details: 10μM ATP
# Method: as §1
# FGFR1 = molecular target: T6, FGFR1 (Homo sapiens, UniProt P11362); assay: HotSpot kinase screen; format: biochemical; details: 10μM ATP
# T6 construct: purchased Reaction Biology Corporation (contract assay)
# FGFR3 = molecular target: T7, FGFR3 (Homo sapiens, UniProt P22607); assay: HotSpot kinase screen; format: biochemical; details: 10μM ATP
# T7 construct: purchased Reaction Biology Corporation (contract assay)
# VEGFR2 [8] = molecular target: T1, VEGFR2; assay: Ten-dose IC50 measurement; format: biochemical; details: 10μM ATP
# synthetic melanin = assay: in vitro
# TIE2 [9] = molecular target: T5, TIE2; assay: Ten-dose IC50 measurement
# [10] = 634 ug, cited from earlier work
# VEGFR2 [11] = molecular target: T1, VEGFR2; assay: HotSpot kinase screen; format: biochemical; details: 10μM ATP
# PDGFRβ = molecular target: T8, PDGFRβ (Homo sapiens, UniProt P09619); assay: HotSpot kinase screen; format: biochemical; details: 10μM ATP
# T8 construct: purchased Reaction Biology Corporation (contract assay)
# T1 sequence (P35968 20-1356): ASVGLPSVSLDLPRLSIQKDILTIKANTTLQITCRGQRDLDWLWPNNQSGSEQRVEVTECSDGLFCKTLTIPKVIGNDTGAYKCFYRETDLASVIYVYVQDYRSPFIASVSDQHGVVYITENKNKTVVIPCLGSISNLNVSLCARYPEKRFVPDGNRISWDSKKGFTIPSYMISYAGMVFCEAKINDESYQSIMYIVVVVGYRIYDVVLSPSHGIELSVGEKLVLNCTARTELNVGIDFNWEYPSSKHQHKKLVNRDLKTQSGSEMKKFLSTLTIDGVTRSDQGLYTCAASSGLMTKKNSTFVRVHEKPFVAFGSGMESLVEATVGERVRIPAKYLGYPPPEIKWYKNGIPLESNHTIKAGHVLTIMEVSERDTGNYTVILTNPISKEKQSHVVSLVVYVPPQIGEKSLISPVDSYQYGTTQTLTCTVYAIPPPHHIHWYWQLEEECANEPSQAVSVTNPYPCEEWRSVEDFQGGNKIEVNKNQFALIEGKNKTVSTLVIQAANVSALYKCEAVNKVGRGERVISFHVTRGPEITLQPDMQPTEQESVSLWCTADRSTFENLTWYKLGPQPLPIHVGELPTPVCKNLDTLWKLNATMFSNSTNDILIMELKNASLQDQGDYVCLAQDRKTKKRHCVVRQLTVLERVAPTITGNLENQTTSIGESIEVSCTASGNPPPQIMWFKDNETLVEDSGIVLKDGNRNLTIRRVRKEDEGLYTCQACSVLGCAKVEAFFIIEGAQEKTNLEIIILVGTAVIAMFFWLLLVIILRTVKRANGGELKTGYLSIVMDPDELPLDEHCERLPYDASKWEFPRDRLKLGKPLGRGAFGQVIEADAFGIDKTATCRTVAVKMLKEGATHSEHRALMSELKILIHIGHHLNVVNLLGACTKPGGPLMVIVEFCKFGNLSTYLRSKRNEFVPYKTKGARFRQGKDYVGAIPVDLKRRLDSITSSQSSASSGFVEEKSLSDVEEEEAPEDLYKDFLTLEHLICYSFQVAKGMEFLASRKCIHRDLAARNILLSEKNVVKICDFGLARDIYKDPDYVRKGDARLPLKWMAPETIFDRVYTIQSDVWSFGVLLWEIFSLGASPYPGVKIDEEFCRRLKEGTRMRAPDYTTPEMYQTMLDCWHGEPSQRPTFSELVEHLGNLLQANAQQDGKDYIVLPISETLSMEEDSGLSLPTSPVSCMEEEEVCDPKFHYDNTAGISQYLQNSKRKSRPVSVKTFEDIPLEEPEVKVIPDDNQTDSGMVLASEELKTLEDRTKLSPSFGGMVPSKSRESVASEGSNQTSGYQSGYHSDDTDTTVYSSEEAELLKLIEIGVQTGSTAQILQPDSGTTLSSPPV
# T3 sequence (P17948 27-1338): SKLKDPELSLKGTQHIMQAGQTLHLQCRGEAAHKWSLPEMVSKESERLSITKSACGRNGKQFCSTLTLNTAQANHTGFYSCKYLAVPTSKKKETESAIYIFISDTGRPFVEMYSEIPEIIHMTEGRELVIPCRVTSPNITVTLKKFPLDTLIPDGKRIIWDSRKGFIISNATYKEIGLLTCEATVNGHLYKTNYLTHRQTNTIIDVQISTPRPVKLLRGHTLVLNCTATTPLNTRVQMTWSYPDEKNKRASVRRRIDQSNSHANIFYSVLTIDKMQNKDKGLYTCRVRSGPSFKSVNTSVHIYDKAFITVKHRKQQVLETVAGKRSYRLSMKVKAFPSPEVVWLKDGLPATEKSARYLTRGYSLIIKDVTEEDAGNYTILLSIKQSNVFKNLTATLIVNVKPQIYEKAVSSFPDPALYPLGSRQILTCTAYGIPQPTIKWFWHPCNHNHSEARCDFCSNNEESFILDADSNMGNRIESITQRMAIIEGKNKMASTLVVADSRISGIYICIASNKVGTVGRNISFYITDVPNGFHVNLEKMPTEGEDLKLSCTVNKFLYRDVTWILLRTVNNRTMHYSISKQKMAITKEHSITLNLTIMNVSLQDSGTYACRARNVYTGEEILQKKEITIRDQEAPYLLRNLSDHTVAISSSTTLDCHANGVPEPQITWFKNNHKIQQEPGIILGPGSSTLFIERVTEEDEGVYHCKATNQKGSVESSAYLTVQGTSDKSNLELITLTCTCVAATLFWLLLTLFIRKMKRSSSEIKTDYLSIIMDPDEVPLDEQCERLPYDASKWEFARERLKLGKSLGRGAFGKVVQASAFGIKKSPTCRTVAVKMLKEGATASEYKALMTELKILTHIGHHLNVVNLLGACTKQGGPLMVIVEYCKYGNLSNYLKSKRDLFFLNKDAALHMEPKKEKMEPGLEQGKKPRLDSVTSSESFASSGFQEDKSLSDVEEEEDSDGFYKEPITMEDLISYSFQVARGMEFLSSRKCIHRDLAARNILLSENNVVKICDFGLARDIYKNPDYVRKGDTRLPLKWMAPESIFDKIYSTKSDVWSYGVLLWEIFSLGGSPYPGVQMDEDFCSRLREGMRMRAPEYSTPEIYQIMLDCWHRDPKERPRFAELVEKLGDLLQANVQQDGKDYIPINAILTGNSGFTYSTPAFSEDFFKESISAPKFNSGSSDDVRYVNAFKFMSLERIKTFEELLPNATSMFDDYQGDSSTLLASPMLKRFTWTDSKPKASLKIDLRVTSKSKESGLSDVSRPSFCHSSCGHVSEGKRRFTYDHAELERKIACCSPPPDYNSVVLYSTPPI
# T2 sequence (P35916 25-1363): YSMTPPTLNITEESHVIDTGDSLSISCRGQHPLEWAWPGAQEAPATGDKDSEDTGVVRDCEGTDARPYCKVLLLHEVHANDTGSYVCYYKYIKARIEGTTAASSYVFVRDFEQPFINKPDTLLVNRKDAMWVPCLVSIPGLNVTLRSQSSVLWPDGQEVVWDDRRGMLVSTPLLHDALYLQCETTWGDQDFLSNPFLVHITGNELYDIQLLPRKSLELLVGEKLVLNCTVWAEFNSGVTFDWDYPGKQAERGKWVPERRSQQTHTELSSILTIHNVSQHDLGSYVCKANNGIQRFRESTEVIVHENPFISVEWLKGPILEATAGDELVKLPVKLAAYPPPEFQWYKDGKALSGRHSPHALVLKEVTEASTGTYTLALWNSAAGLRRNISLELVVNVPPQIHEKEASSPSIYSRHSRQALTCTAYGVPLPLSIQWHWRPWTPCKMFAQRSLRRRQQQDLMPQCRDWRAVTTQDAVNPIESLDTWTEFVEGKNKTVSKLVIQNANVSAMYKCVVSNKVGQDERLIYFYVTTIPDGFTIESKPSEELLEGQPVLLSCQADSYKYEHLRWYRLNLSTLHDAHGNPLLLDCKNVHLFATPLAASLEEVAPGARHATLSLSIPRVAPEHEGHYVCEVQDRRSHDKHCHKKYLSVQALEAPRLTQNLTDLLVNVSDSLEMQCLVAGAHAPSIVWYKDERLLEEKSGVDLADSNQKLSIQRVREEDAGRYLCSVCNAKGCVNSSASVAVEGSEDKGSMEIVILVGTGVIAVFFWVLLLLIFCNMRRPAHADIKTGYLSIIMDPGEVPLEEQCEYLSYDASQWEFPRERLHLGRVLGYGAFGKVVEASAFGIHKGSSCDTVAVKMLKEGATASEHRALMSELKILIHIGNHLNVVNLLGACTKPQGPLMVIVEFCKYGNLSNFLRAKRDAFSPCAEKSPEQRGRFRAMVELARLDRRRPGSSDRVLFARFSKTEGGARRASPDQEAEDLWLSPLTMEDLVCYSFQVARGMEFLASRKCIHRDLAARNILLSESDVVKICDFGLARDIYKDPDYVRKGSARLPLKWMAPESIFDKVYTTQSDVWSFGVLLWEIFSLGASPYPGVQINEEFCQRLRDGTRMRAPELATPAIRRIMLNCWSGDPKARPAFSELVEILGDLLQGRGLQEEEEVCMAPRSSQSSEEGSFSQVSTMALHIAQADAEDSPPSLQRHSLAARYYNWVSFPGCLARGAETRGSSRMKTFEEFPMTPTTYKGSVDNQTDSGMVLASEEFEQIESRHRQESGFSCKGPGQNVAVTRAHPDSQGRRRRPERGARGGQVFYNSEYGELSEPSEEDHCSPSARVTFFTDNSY
# T5 sequence (Q02763 23-1124): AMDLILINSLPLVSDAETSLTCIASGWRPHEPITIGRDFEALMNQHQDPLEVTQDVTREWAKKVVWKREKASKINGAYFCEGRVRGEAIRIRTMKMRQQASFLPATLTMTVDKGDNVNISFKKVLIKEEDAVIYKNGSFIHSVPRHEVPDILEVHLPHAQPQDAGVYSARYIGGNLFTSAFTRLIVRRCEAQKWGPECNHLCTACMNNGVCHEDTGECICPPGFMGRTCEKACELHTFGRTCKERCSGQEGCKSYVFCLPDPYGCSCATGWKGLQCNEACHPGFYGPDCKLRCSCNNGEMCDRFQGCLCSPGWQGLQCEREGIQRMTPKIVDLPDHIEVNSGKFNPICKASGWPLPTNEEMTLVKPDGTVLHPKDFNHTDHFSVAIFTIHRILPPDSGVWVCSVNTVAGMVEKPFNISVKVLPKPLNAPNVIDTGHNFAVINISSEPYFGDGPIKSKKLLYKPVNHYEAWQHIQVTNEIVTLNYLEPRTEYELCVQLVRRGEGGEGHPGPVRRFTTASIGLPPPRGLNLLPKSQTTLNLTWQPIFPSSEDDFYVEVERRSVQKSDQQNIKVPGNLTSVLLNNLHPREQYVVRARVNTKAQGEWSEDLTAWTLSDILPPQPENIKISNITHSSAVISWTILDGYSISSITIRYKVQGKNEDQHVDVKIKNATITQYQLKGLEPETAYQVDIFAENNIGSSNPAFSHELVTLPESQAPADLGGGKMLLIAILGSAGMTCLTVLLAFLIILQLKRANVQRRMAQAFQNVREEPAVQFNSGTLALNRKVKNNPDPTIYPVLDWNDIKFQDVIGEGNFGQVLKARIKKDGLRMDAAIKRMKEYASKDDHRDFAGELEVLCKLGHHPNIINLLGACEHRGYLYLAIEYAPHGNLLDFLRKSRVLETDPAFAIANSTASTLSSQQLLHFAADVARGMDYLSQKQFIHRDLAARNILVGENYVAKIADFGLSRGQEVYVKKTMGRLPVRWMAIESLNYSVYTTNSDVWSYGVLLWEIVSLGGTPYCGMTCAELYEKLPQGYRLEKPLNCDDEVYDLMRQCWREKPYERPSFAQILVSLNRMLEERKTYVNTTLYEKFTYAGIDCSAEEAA
compound,measurement,setting,value
Cc1[nH]c(/C=C2\C(=O)Nc3ccc(F)cc32)c(C)c1C(=O)N[C@H]1CCN(C(=O)N(C)C)C1 [Vorolanib],IC50,"VEGFR2 [1]; determined by Millipore Corporation prior to the study, read-out: VEGFR2 IC50 (used to set CAM doses)",52 nM
same,IC50,"VEGFR2 [1]; previously reported, read-out: VEGFR2 IC50",1.12 nM
same,IC50,"VEGFR3 [2]; S1 Dataset, read-out: IC50 VEGFR3",3.39e-08 M
same,%Activity VEGFR3,VEGFR3 [2]; 1.00E-05 M TKI,2.39%
same,%Activity VEGFR3,VEGFR3 [2]; 1.11E-06 M TKI,8.63%
same,%Activity VEGFR3,VEGFR3 [2]; 1.23E-07 M TKI,30.49%
same,%Activity VEGFR3,VEGFR3 [2]; 1.37E-08 M TKI,60.22%
same,%Activity VEGFR3,VEGFR3 [2]; 1.52E-09 M TKI,79.65%
same,%Activity VEGFR3,VEGFR3 [2]; 3.33E-06 M TKI,4.43%
same,%Activity VEGFR3,VEGFR3 [2]; 3.70E-07 M TKI,18.98%
same,%Activity VEGFR3,VEGFR3 [2]; 4.12E-08 M TKI,44.44%
same,%Activity VEGFR3,VEGFR3 [2]; 4.57E-09 M TKI,68.37%
same,%Activity VEGFR3,VEGFR3 [2]; 5.08E-10 M TKI,81.12%
same,IC50,"VEGFR3 [2]; Fig 3A inset, unit inferred, plot axes in (M), read-out: Compound IC50 data for VEGFR-3: IC50",3.39e-08 M
same,IC50,VEGFR2 [3],52.3 nM
same,%Activity VEGFR1,"VEGFR1 [4]; 1.00E-05 M TKI, 10μM ATP",15.82%
same,%Activity VEGFR1,"VEGFR1 [4]; 1.11E-06 M TKI, 10μM ATP",42.07%
same,%Activity VEGFR1,"VEGFR1 [4]; 1.37E-08 M TKI, 10μM ATP",89.38%
same,%Activity VEGFR1,"VEGFR1 [4]; 1.52E-09 M TKI, 10μM ATP",85.26%
same,%Activity VEGFR1,"VEGFR1 [4]; 3.33E-06 M TKI, 10μM ATP",22.84%
same,%Activity VEGFR1,"VEGFR1 [4]; 3.70E-07 M TKI, 10μM ATP",64.45%
same,%Activity VEGFR1,"VEGFR1 [4]; 4.12E-08 M TKI, 10μM ATP",79.63%
same,%Activity VEGFR1,"VEGFR1 [4]; 4.57E-09 M TKI, 10μM ATP",88.85%
same,IC50,"VEGFR1 [4]; Compound IC50 data for VEGFR-1: IC50, Fig 3A inset, unit inferred, plot axes in (M), 10μM ATP",9.44e-07 M
same,IC50,"VEGFR1 [4]; IC50 VEGFR1, 10μM ATP, S1 Dataset",9.44e-07 M
same,Avg % Inhibition VEGFR3,VEGFR3 [5]; 1uM TKI,90.14%
same,Avg % Inhibition VEGFR3,VEGFR3 [5]; 10uM TKI,98.55%
same,Avg % Inhibition FGFR2,FGFR2; 1uM TKI,56.64%
same,Avg % Inhibition FGFR2,FGFR2; 10uM TKI,90.82%
same,Avg % Inhibition TIE2,TIE2 [6]; 1uM TKI,4.09%
same,Avg % Inhibition TIE2,"TIE2 [6]; 1uM TKI, listed as vorolanib",4%
same,Avg % Inhibition TIE2,TIE2 [6]; 10uM TKI,21.27%
same,Avg % Inhibition TIE2,"TIE2 [6]; 10uM TKI, listed as vorolanib",21%
same,Avg % Inhibition VEGFR1,VEGFR1 [7]; 1uM TKI,54.61%
same,Avg % Inhibition VEGFR1,VEGFR1 [7]; 10uM TKI,77.43%
same,Avg % Inhibition FGFR1,FGFR1; 1uM TKI,28.53%
same,Avg % Inhibition FGFR1,FGFR1; 10uM TKI,65.32%
same,Avg % Inhibition FGFR3,FGFR3; 1uM TKI,63.96%
same,Avg % Inhibition FGFR3,FGFR3; 10uM TKI,86.13%
same,IC50,"VEGFR2 [8]; S1 Dataset, read-out: IC50 VEGFR2",7.61e-08 M
same,%Activity VEGFR2,VEGFR2 [8]; 1.00E-05 M TKI,7.53%
same,%Activity VEGFR2,VEGFR2 [8]; 1.11E-06 M TKI,15.96%
same,%Activity VEGFR2,VEGFR2 [8]; 1.23E-07 M TKI,39.66%
same,%Activity VEGFR2,VEGFR2 [8]; 1.37E-08 M TKI,76.92%
same,%Activity VEGFR2,VEGFR2 [8]; 1.52E-09 M TKI,90.70%
same,%Activity VEGFR2,VEGFR2 [8]; 3.33E-06 M TKI,8.61%
same,%Activity VEGFR2,VEGFR2 [8]; 3.70E-07 M TKI,24.16%
same,%Activity VEGFR2,VEGFR2 [8]; 4.12E-08 M TKI,62.72%
same,%Activity VEGFR2,VEGFR2 [8]; 4.57E-09 M TKI,90.18%
same,%Activity VEGFR2,VEGFR2 [8]; 5.08E-10 M TKI,99.81%
same,IC50,"VEGFR2 [8]; Fig 3A inset, unit inferred, plot axes in (M), read-out: Compound IC50 data for VEGFR-2: IC50",7.61e-08 M
same,fraction unbound at 1 h,synthetic melanin,0.857
same,%Activity TIE2,"TIE2 [9]; 1.00E-05 M TKI, 10μM ATP",69.30%
same,%Activity TIE2,"TIE2 [9]; 1.11E-06 M TKI, 10μM ATP",100.16%
same,%Activity TIE2,"TIE2 [9]; 1.37E-08 M TKI, 10μM ATP",100.50%
same,%Activity TIE2,"TIE2 [9]; 1.52E-09 M TKI, 10μM ATP",103.72%
same,%Activity TIE2,"TIE2 [9]; 3.33E-06 M TKI, 10μM ATP",83.50%
same,%Activity TIE2,"TIE2 [9]; 3.70E-07 M TKI, 10μM ATP",100.13%
same,%Activity TIE2,"TIE2 [9]; 4.12E-08 M TKI, 10μM ATP",99.77%
same,%Activity TIE2,"TIE2 [9]; 4.57E-09 M TKI, 10μM ATP",100.65%
same,%Activity TIE2,"TIE2 [9]; 5.08E-10 M TKI, 10μM ATP",98.18%
same,IC50,"TIE2 [9]; IC50 TIE2, 10μM ATP, S1 Dataset",20700 nM
same,IC50,"TIE2 [9]; TIE2 IC50, determined by Reaction Biology (US), 10μM ATP",20700 nM
same,"Concentration, choroid",[10]; 2 days post-treatment,124 µg/g
same,"Concentration, choroid",[10]; 14 days post-treatment,52 µg/g
same,"Concentration, choroid",[10]; 29 days post-treatment,74 µg/g
same,"Concentration, choroid",[10]; 62 days post-treatment,206 µg/g
same,"Concentration, choroid",[10]; 120 days post-treatment,109 µg/g
same,"Concentration, choroid",[10]; 182 days post-treatment,200 µg/g
same,"Concentration, choroid",[10]; 240 days post-treatment,293 µg/g
same,"Concentration, retina",[10]; 2 days post-treatment,208.6 µg/g
same,"Concentration, retina",[10]; 14 days post-treatment,223.3 µg/g
same,"Concentration, retina",[10]; 29 days post-treatment,143.1 µg/g
same,"Concentration, retina",[10]; 62 days post-treatment,136.3 µg/g
same,"Concentration, retina",[10]; 120 days post-treatment,434.5 µg/g
same,"Concentration, retina",[10]; 182 days post-treatment,243.2 µg/g
same,"Concentration, retina",[10]; 240 days post-treatment,122.5 µg/g
same,Avg % Inhibition VEGFR2,VEGFR2 [11]; 1uM TKI,74.78%
same,Avg % Inhibition VEGFR2,VEGFR2 [11]; 10uM TKI,86.6%
same,Avg % Inhibition PDGFRb,PDGFRβ; 1uM TKI,83.57%
same,Avg % Inhibition PDGFRb,PDGFRβ; 10uM TKI,94.8%
